The target in the assay is T1, Recombinant human renin (Homo sapiens, UniProt P00797).
T1 construct: isolate the active form (residues 67-406); made in house; host or cells: FreeStyle 293-F cells (transient expression of pcDNA3.1(+)/hREN)
T1 sequence (P00797 67-406): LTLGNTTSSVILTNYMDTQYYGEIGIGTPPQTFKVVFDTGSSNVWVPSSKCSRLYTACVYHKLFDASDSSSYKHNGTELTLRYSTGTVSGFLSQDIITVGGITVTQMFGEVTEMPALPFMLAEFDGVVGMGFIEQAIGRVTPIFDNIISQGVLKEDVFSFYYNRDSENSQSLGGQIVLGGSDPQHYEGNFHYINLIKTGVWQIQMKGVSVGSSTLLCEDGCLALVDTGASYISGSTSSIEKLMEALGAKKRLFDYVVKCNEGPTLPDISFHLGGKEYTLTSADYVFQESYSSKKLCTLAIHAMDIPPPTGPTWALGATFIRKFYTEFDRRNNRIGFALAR
The experiment in a line: In vitro enzymatic activity assay of renin inhibitors (fluorogenic peptide substrate). The note with it: read-out: IC50 of Exemplified Compounds Against Renin. The format is biochemical. A digest of the protocol:
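Enzyme: recombinant human renin, 3 nM final, 10 min compound pre-incubation at 37 °C; buffer 50 mM Hepes pH 7.4 with 0.1 mg/mL BSA or extra 2% BSA; 5% DMSO.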

For the compound `COCCCn1c([C@@H]2CCCN(C(=O)C[C@H](N)CNC(=O)c3cccc(C(=O)OC)c3)C2)nc2ccccc21` [Compound 282, methyl 3-((S)-2-amino-4-((R)-3-(1-(3-methoxypropyl)-1H-benzo[d]imidazol-2-yl)piperidin-1-yl)-4-oxobutylcarbamoyl)benzoate], the IC50 was 100 to 1000 nM.
The same measure for `COCCCn1c([C@@H]2CCCN(C(=O)C[C@H](N)CNC(=O)Nc3cccc(OC)c3)C2)nc2ccccc21` [Compound 254, 1-((S)-2-amino-4-((R)-3-(1-(3-methoxypropyl)-1H-benzo[d]imidazol-2-yl)piperidin-1-yl)-4-oxobutyl)-3-(3-methoxyphenyl)urea]: under 100 nM; for `COCCCn1c([C@@H]2CCCN(C(=O)[C@@H]3CN(S(=O)(=O)c4ccccc4C(=O)OC)C[C@H]3N)C2)nc2ccccc21` [Compound 373, methyl 2-((3S,4R)-3-amino-4-((R)-3-(1-(3-methoxypropyl)-1H-benzo[d]imidazol-2-yl)piperidine-1-carbonyl)pyrrolidin-l-ylsulfonyl)benzoate]: 100 to 1000 nM.
On to `COCCCn1c([C@@H]2CCCN(C(=O)C[C@H](N)CNC(=O)c3ccc(-c4cc(Cl)cc(Cl)c4)o3)C2)nc2ccccc21` [Compound 295, N-((S)-2-amino-4-((R)-3-(1-(3-methoxypropyl)-1H-benzo[d]imidazol-2-yl)piperidin-1-yl)-4-oxobutyl)-5-(3,5-dichlorophenyl)furan-2-carboxamide], for which the half-maximal inhibitory concentration (IC50) was in the range of 100 to 1000 nM.
With `CC(=O)NCCn1c([C@@H]2CCCN(C(=O)C[C@H](N)Cc3ccc(-c4cnc(N)nc4)cc3)C2)nc2ccccc21` [Compound 450, N-(2-(2-((R)-1-((R)-3-amino-4-(4-(2-aminopyrimidin-5-yl)phenyl)butanoyl)piperidin-3-yl)-1H-benzo[d]imidazol-1-yl)ethyl)acetamide] the figure was 100 to 1000 nM.
With `O=C(NC(=O)N1CCCC(c2nc3ccccc3[nH]2)C1)c1ccccc1` (stereo not shown) [Compound 5, 3-(1H-benzo[d]imidazol-2-yl)-N-benzoylpiperidine-1-carboxamide] the figure was over 1000 nM; with `N[C@@H](CC(=O)N1CCCC(c2nc3ccccc3[nH]2)C1)Cc1ccccc1Cl` (stereo partly drawn) [Compound 27, (3R)-1-(3-(1H-benzo[d]imidazol-2-yl)piperidin-1-yl)-3-amino-4-(2-chlorophenyl)butan-1-one], over 1000 nM.
As to `COCCCn1c([C@@H]2CCCN(C(=O)C[C@H](N)Cc3ccc(-c4ccnc(O)c4)cc3)C2)nc2c(F)cccc21` [Compound 444, (R)-3-amino-1-((R)-3-(4-fluoro-1-(3-methoxypropyl)-1H-benzo[d]imidazol-2-yl)piperidin-1-yl)-4-(4-(2-hydroxypyridin-4-yl)phenyl)butan-1-one], the IC50 is under 100 nM.
The same measure for `C[C@H](N)C(=O)N1CCCC(c2nc3ccccc3[nH]2)C1` (stereo partly drawn) [Compound 53, (2S)-1-(3-(1H-benzo[d]imidazol-2-yl)piperidin-1-yl)-2-aminopropan-1-one]: over 1000 nM; for `COCCCn1c([C@@H]2CCCN(C(=O)C[C@H](N)Cc3ccc(N4CCOCC4=O)cc3)C2)nc2ccccc21` [Compound 213]: 100 to 1000 nM.
With `COCCCn1c([C@@H]2CCCN(C(=O)C[C@H](N)CNC(=O)c3ccc(-c4cc(Cl)ccc4Cl)o3)C2)nc2ccccc21` [Compound 276, N-((S)-2-amino-4-((R)-3-(1-(3-methoxypropyl)-1H-benzo[d]imidazol-2-yl)piperidin-1-yl)-4-oxobutyl)-5-(2,5-dichlorophenyl)furan-2-carboxamide] the figure was 100 to 1000 nM; with `NC(=O)CCn1c([C@@H]2CCCN(C(=O)C[C@H](N)Cc3ccc(-c4ccncc4)cc3)C2)nc2ccccc21` [Compound 488, 3-(2-((R)-1-((R)-3-amino-4-(4-(pyridin-4-yl)phenyl)butanoyl)piperidin-3-yl)-1H-benzo[d]imidazol-1-yl)propanamide], 100 to 1000 nM; with `COCCCn1c([C@@H]2CCCN(C(=O)[C@@H]3CN(S(=O)(=O)c4c(C)cccc4Cl)C[C@H]3N)C2)nc2ccccc21` [Compound 359, ((3R,4S)-4-amino-1-(2-chloro-6-methylphenylsulfonyl)pyrrolidin-3-yl)((R)-3-(1-(3-methoxypropyl)-1H-benzo[d]imidazol-2-yl)piperidin-1-yl)methanone], 100 to 1000 nM.
Take `COCCCn1c([C@@H]2CCCN(C(=O)C[C@H](N)c3cccc(Br)c3)C2)nc2ccccc21` [Compound 80, (S)-3-amino-3-(3-bromophenyl)-1((R)-3-(1-(3-methoxypropyl)-1H-benzo[d]imidazol-2-yl)piperidin-1-yl)propan-1-one]: the IC50 lay in the range of 100 to 1000 nM.
The same measure for `COCCCn1c([C@@H]2CCCN(C(=O)C[C@H](N)c3cccc(C(F)(F)F)c3)C2)nc2ccccc21` [Compound 84, (S)-3-amino-1-((R)-3-(1-(3-methoxypropyl)-1H-benzo[d]imidazol-2-yl)piperidin-1-yl)-3-(3-(trifluoromethyl)phenyl)propan-1-one]: 100 to 1000 nM.
Turning to `COCCCn1c([C@@H]2CCCN(C(=O)C[C@H](N)Cc3ccc(-c4ccc5c(c4)OCCO5)cc3)C2)nc2c(F)cccc21` [Compound 455, (R)-3-amino-4-(4-(2,3-dihydrobenzo[b][1,4]dioxin-6-yl)phenyl)-1-((R)-3-(4-fluoro-1-(3-methoxypropyl)-1H-benzo[d]imidazol-2-yl)piperidin-1-yl)butan-1-one], the half-inhibitory concentration (IC50) is under 100 nM.
The same measure for `COCCCn1c([C@@H]2CCCN(C(=O)[C@@H]3CN(S(=O)(=O)c4ccc5c(c4)CCO5)C[C@H]3N)C2)nc2ccccc21` [Compound 355, ((3R,4S)-4-amino-1-(2,3-dihydrobenzofuran-5-ylsulfonyl)pyrrolidin-3-y1)((R)-3-(1-(3-methoxypropyl)-1H-benzo[d]imidazol-2-yl)piperidin-1-yl)methanone]: 100 to 1000 nM.
With `CC(=O)NCCn1c([C@@H]2CCCN(C(=O)C[C@H](N)Cc3ccc4ccccc4c3)C2)nc2ccccc21` [Compound 239, N-(2-(2-((R)-1((R)-3-amino-4-(naphthalen-2-yl)butanoyl)piperidin-3-yl)-1H-benzo[d]imidazol-1-yl)ethyl)acetamide] the figure was 100 to 1000 nM; with `COCCCn1c([C@@H]2CCCN(C(=O)[C@@H]3CN(S(=O)(=O)C(C)C)C[C@H]3N)C2)nc2ccccc21` [Compound 371, ((3R,4S)-4-amino-1-(isopropylsulfonyl)pyrrolidin-3-yl)((R)-3-(1-(3-methoxypropyl)-1H-benzo[d]imidazol-2-yl)piperidin-1-yl)methanone], 100 to 1000 nM.
As to `O=C(NC1CCCCC1)N1CCCC(c2nc3ccccc3[nH]2)C1` (stereo not shown) [Compound 10, 3-(1H-benzo[d]imidazol-2-yl)-N-cyclohexylpiperidine-1-carboxamide], the IC50 was over 1000 nM.
For the compound `CCCSc1ncccc1C(=O)NC[C@@H](N)CC(=O)N1CCC[C@@H](c2nc3ccccc3n2CCCOC)C1` [Compound 307, N-((S)-2-amino-4-((R)-3-(1-(3-methoxypropyl)-1H-benzo[d]imidazol-2-yl)piperidin-1-yl)-4-oxobutyl)-2-(propylthio)nicotinamide], the IC50 was in the range of 100 to 1000 nM.
With `COCCCn1c([C@@H]2CCCN(C(=O)C[C@H](N)CNC(=O)c3ccc(-c4ccccc4F)o3)C2)nc2ccccc21` [Compound 260, N-((S)-2-amino-4-((R)-3-(1-(3-methoxypropyl)-1H-benzo[d]imidazol-2-yl)piperidin-1-yl)-4-oxobutyl)-5-(2-fluorophenyl)furan-2-carboxamide] the figure was under 100 nM; with `COCCCn1c([C@@H]2CCCN(C(=O)C[C@H](N)Cc3cccnc3)C2)nc2ccccc21` [Compound 82, (R)-3-amino-1((R)-3-(1-(3-methoxypropyl)-1H-benzo[d]imidazol-2-yl)piperidin-1-yl)-4-(pyridin-3-yl)butan-1-one], over 1000 nM.
The same measure for `COCCCn1c([C@@H]2CCCN(C(=O)C[C@H](N)Cc3ccc4ccccc4c3)C2)nc2ccccc21` [Compound 74, (R)-3-amino-1((R)-3-(1-(3-methoxypropyl)-1H-benzo[d]imidazol-2-yl)piperidin-1-yl)-4-(naphthalen-2-yl)butan-1-one]: under 100 nM; for `COCCCn1c([C@@H]2CCCN(C(=O)C[C@H](N)Cc3ccc(-n4c(=O)oc5ccccc54)cc3)C2)nc2ccccc21` [Compound 211]: under 100 nM; for `COCCCn1c([C@@H]2CCCN(C(=O)C[C@H](N)CNC(=O)c3ccc(-c4cccc(Cl)c4)o3)C2)nc2ccccc21` [Compound 296, N-((S)-2-amino-4-((R)-3-(1-(3-methoxypropyl)-1H-benzo[d]imidazol-2-yl)piperidin-1-yl)-4-oxobutyl)-5-(3-chlorophenyl)furan-2-carboxamide]: 100 to 1000 nM.
The same measure for `COCCCn1c([C@@H]2CCCN(C(=O)C[C@H](N)Cc3ccccc3)C2)nc2ccccc21` [Compound 87, (R)-3-amino-1((R)-3-(1-(3-methoxypropyl)-1H-benzo[d]imidazol-2-yl)piperidin-yl)-4-phenylbutan-1-one]: 100 to 1000 nM; for `COCCCn1c([C@@H]2CCCN(C(=O)C[C@H](N)Cc3ccc4ccccc4c3)C2)nc2cccc(Cl)c21` [Compound 97, (R)-3-amino-1-((R)-3-(7-chloro-1-(3-methoxypropyl)-1H-benzo[d]imidazol-2-yl)piperidin-1-yl)-4-(naphthalen-2-yl)butan-1-one]: under 100 nM.

Values taken from patent publication US8138168B1 (Takeda Pharmaceutical Company Limited, priority 2007, dated 2012).
